For eleven compounds, DC50, IC50 and Dmax results are on record in patent US20260049072A1, “HETEROCYCLIC COMPOUND FOR INDUCING DEGRADATION OF MUTANT KRAS PROTEIN” (Astellas Pharma Inc., priority 2022, published 2026).

Where two headings read alike, the source gives them in different places.

In one experiment the target is T1, RAS G12V (Homo sapiens, UniProt P01116, G12V).
T1 construct: host or cells: PA-TU-8902 human pancreatic cancer cells
Kind of experiment: RAS G12V degradation activity, Cell ELISA, PA-TU-8902. The experiment is classed as cell-based. The settings on record: PA-TU-8902 cells, 24 hours; for DC50: 100% = Example compound 17 at 1 μM, read-out: DC50 (RAS G12V 50% degradation value). How it is done: Test Example 1-1: Evaluation of RAS G12V Degradation Activity on Human KRAS G12V Mutant-Positive Pancreatic Cancer Line PA-TU-8902
The RAS G12V degradation activities of subject compounds were evaluated by measuring the expression levels of RAS G12V by a Cell ELISA method.
PA-TU-8902 cells (DSMZ, ACC 179) were seeded at 36 μL per well on a 384-well plate (from Greiner bio-one) to give 1.5×10^4 cells per well. As for the cell culture conditions, DMEM medium (from Sigma-Aldrich) containing 10% fetal bovine serum (from Cytiva) was used in the presence of 5% CO2 at 37° C.
The next day, the subject compounds (10 points having final concentrations in the range of 3 μM to 0.1 nM), Example compound 17 of a final concentration of 1 μM as a positive control and dimethyl sulfoxide (DMSO), which was the solvent for the subject compounds, as a negative control were diluted 100-fold with a fresh medium and were each added at 4 μL per well, followed by culturing for 24 hours.
The next day, the culture supernatant was removed, and a 4% paraformaldehyde phosphate buffer solution (from FUJIFILM Wako) was added at 20 μL per well. The plate was allowed to stand for 30 minutes at room temperature to thus immobilize the cells. Then, the supernatant was removed, and 0.1% Triton X-100 (from Amersham Biosciences)-containing Phosphate buffered saline (PBS) was added at 20 μL per well. After allowing the plate to stand at room temperature for 10 minutes, the supernatant was removed, and the wells were washed twice in total by adding PBS at 25 μL per well and removing the supernatant. The washing operations below were performed in the same manner. Next, the supernatant was removed, and 0.5% sodium dodecyl sulfate (SDS; from ThermoFisher Scientific)-containing PBS was added at 20 μL per well. After allowing the plate to stand at room temperature for 10 minutes, the plate was centrifuged to remove the supernatant. After washing with PBS, the supernatant was removed by centrifugation, and a blocking solution (PVDF Blocking Reagent for Can Get Signal; from TOYOBO) was added at 20 μL per well. After allowing the plate to stand for 30 minutes at room temperature, the supernatant was removed by centrifugation, and a solution obtained by diluting an anti-Ras (G12V Mutant Specific) antibody (Ras (G12V Mutant Specific) (D2H12) Rabbit mAb; from Cell Signaling Technology; 500-fold dilution) and an anti-3-actin antibody (Anti-beta Actin antibody; from Abcam; 5,000-fold dilution) with Can Get Signal Solution 2 (from TOYOBO) was added at 15 μL per well as primary antibodies. The plate was allowed to stand overnight at 4° C.
The next day, the supernatant was removed by centrifugation, and the plate was washed with PBS. The supernatant was removed by centrifugation, and a solution obtained by diluting an anti-rabbit IgG antibody (IRDye 800CW Goat anti-Rabbit IgG; from LI-COR Biosciences) and an anti-mouse IgG antibody (IRDye 680RD Donkey anti-Mouse IgG; from LI-COR Biosciences) 1,000-fold with Can Get Signal Solution 2 was added at 15 μL per well as secondary antibodies. After allowing the plate to stand at room temperature for an hour, the supernatant was removed by centrifugation, and the plate was washed with PBS. After removing the supernatant, the plate was dried as it was with air at room temperature for two hours or more, and the 700-nm and 800-nm fluorescent signals were measured with Aerius (from LI-COR Biosciences).
With the RAS G12V signaling value at the time of addition of DMSO corrected with the signaling value of 3-actin taken as 0% and with the RAS G12V signaling value at the time of addition of Example compound 17 of a final concentration of 1 μM taken as 100%, the RAS G12V degradation rates were calculated. The 50% degradation values (DC50) were calculated by Sigmoid-Emax model nonlinear regression analysis.

The next experiment concerns PA-TU-8902 cells. The experiment in a line: Non-anchorage-dependent cell growth inhibition (spheroid 3D culture), PA-TU-8902. The experiment is classed as cell-based, human. To be noted: Homo sapiens, PaTu 8902, 144 h, read-out: PA-TU-8902 IC50. How it is done: (§1) Test Example 3: Evaluation of Non-Anchorage-Dependent Cell Growth Inhibitory Activity on Human KRAS G12V Mutant-Positive Pancreatic Cancer Line PA-TU-8902, Human KRAS G12D Mutant-Positive Pancreatic Cancer Line AsPC-1 or Human KRAS G12C Mutant-Positive Pancreatic Cancer Line MIA PaCa-2
(§2) The non-anchorage-dependent cell growth inhibitory activities of subject compounds were evaluated by spheroid 3D cell culture.
(§3) PA-TU-8902 cells, AsPC-1 cells or MIA PaCa-2 cells (RIKEN BRC, RCB2094) were seeded at 36 µL/well on a low-cell-adhesive round bottom 384-well plate (Prime Surface: from Sumitomo Bakelite) to give 5×10^2 cells per well. The PA-TU-8902 cells were under the same conditions as in Test Example 1-1, and the AsPC-1 cells were under the same conditions as in Test Example 1-2. For the MIA PaCa-2 cells, RPMI-1640 medium containing 10% fetal bovine serum was used in the presence of 5% CO2 at 37° C.
(§4) The next day, the subject compounds (6-9 points having final concentrations in the range of 3 μM to 0.3 nM) and DMSO, which was the solvent for the subject compounds, as a negative control were diluted 100-fold with a fresh medium and were each added at 4 μL per well. After culturing in the presence of 5% CO2 at 37° C. for six days, CellTiter-Glo 2.0 (from Promega) was added at 20 μL per well. After stirring with a plate mixer (from FINEPCR) at normal temperature for an hour, the luminescent signals were measured with ARVO X3 (from PerkinElmer).
(§5) With the signaling value in treatment with DMSO taken as 0% inhibition and with the signaling value in the medium alone without cells taken as 100% inhibition, the 50% inhibition values (IC50) were calculated by Sigmoid-Emax model nonlinear regression analysis.

For the next experiment, the system named is AsPC-1 cells. The experiment in a line: Non-anchorage-dependent cell growth inhibition (spheroid 3D culture), AsPC-1. The experiment is classed as cell-based. To be noted: Homo sapiens, ASPC1, 144 h, read-out: AsPC-1 IC50. On the procedure:
as §1, §2, §3, §4, §5

In the next experiment the test system is MIA PaCa-2 cells. The experiment in a line: Non-anchorage-dependent cell growth inhibition (spheroid 3D culture), MIA PaCa-2. The experiment is classed as cell-based. To be noted: Homo sapiens, MIA PaCa-2, 144 h, read-out: MIA PaCa-2 IC50. How it is done: as §1, §2, §3, §4, §5
[1] abbreviates: KRAS G12V mutant-positive, 3D spheroid, six days, CellTiter-Glo 2.0.
The mark [2] stands for this setting: KRAS G12D mutant-positive, 3D spheroid, six days, CellTiter-Glo 2.0.
Setting [3] is: KRAS G12C mutant-positive, 3D spheroid, six days, CellTiter-Glo 2.0.

T1 sequence (P01116 1-188 isoform P01116-2 G12V): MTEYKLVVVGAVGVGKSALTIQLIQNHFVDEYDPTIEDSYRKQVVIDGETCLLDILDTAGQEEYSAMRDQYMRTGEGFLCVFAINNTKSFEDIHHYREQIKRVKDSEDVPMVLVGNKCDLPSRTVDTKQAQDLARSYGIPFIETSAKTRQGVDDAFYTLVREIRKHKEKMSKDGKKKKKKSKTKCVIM

On to `CO[C@@H](C)COc1nc(NC2CN(C(=O)O[C@H]3C[C@@H](N(C)C)C3)C2)c2cc(C3CC3)c(-c3c(C)c(F)cc4[nH]ncc34)c(OCc3ccc(-c4cn([C@H](C(=O)N5C[C@H](O)C[C@H]5C(=O)N[C@@H](CO)c5ccc(N6CCOC6=O)cc5)C(C)C)nn4)cc3)c2n1` (atropisomer, axis not shown) [Example 4], for which, on RAS G12V, the DC50 worked out at 45 nM. For the same compound, the 50% inhibitory concentration (IC50) with PA-TU-8902 cells (setting [1]) came out at 72 nM; in the experiment with AsPC-1 cells (setting [2]), 38 nM; with MIA PaCa-2 cells (setting [3]), 22 nM.

Consider `COC(C)(C)COc1cc(OC2CN(C(=O)N3CC(CN(C)C)C3)C2)c2cc(C3CC3)c(-c3c(C)c(F)cc4[nH]ncc34)c(OCc3ccc(-c4cn([C@H](C(=O)N5C[C@H](O)C[C@H]5C(=O)N[C@@H](CO)c5ccc(-n6cncn6)cc5)C(C)C)nn4)cc3)c2n1` (atropisomer, axis not shown) [Example 9], for which, at RAS G12V, the DC50 worked out at 21 nM. The IC50 worked out at 53 nM in the experiment with PA-TU-8902 cells (setting [1]), 19 nM in the experiment with AsPC-1 cells (setting [2]) and 9 nM with MIA PaCa-2 cells (setting [3]).

`CO[C@@H](C)COc1nc(OC2CN(C(=O)NCCN(C)C)C2)c2cc(C3CC3)c(-c3c(C)c(F)cc4[nH]ncc34)c(OCc3ccc(-c4cn([C@H](C(=O)N5C[C@H](O)C[C@H]5C(=O)N[C@@H](CO)c5ccc(-c6scnc6C)cc5)C(C)C)nn4)cc3)c2n1` (atropisomer, axis not shown) [Example 17]: the DC50 on RAS G12V amounted to 41 nM. The IC50 in the experiment on PA-TU-8902 cells (setting [1]) is 46 nM; with AsPC-1 cells (setting [2]) it was 16 nM; with MIA PaCa-2 cells (setting [3]), 10 nM.

For the compound `CNCCNC(=O)N1CC(Oc2nc(OC[C@H](C)OC)nc3c(OCc4ccc(-c5cn([C@H](C(=O)N6C[C@H](O)C[C@H]6C(=O)N[C@@H](CO)c6ccc(-c7scnc7C)cc6)C(C)C)nn5)cc4)c(-c4c(C)c(F)cc5[nH]ncc45)c(C4CC4)cc23)C1` (atropisomer, axis not shown) [Example 18], the DC50 on RAS G12V came to 69 nM. Moreover, the IC50 with PA-TU-8902 cells (setting [1]) is 69 nM; with AsPC-1 cells (setting [2]), 32 nM; with MIA PaCa-2 cells (setting [3]) it was 26 nM.

For the compound `CO[C@@H](C)COc1nc(N(C)[C@H]2CCN(C(=O)NCCN(C)C)C2)c2cc(C3CC3)c(-c3c(C)c(F)cc4[nH]ncc34)c(OCc3ccc(-c4cn([C@H](C(=O)N5C[C@H](O)C[C@H]5C(=O)N[C@@H](CO)c5ccc(-c6scnc6C)cc5)C(C)C)nn4)cc3)c2n1` (atropisomer, axis not shown) [Example 19], the DC50 at RAS G12V was determined as 26 nM. Further, the half-maximal inhibitory concentration (IC50) in the experiment with PA-TU-8902 cells (setting [1]) came out at 58 nM; in the experiment with AsPC-1 cells (setting [2]), 16 nM; in the experiment on MIA PaCa-2 cells (setting [3]), 27 nM.

As to `CO[C@@H](C)COc1nc(N2CC(C#N)C2)c2cc(C3CC3)c(-c3c(C)c(F)cc4[nH]ncc34)c(OCc3ccc(-c4cn([C@H](C(=O)N5C[C@H](O)C[C@H]5C(=O)N[C@@H](CO)c5ccc(-c6scnc6C)cc5)C(C)C)nn4)cc3)c2n1` (atropisomer, axis not shown) [Example 20], the DC50 at RAS G12V was found to be 48 nM. For the same compound, the half-inhibitory concentration (IC50) with PA-TU-8902 cells (setting [1]) was 63 nM; in the experiment on AsPC-1 cells (setting [2]), 68 nM; with MIA PaCa-2 cells (setting [3]), 14 nM.

With `CO[C@@H](C)COc1nc(N2CCOCC2)c2cc(C3CC3)c(-c3c(C)c(F)cc4[nH]ncc34)c(OCc3ccc(-c4cn([C@H](C(=O)N5C[C@H](O)C[C@H]5C(=O)N[C@@H](CO)c5ccc(-c6scnc6C)cc5)C(C)C)nn4)cc3)c2n1` (atropisomer, axis not shown) [Example 21], at RAS G12V, the DC50 was 35 nM. Moreover, the figures for the IC50 in the experiment with PA-TU-8902 cells (setting [1]), in the experiment on AsPC-1 cells (setting [2]) and with MIA PaCa-2 cells (setting [3]) were 60 nM, 43 nM and 11 nM, respectively.

Consider `CO[C@@H](C)COc1nc(N[C@H]2C[C@H](OCCN(C)C)C2)c2cc(C3CC3)c(-c3c(C)c(F)cc4[nH]ncc34)c(OCc3ccc(-c4cn([C@H](C(=O)N5C[C@H](O)C[C@H]5C(=O)N[C@@H](CO)c5ccc(-c6scnc6C)cc5)C(C)C)nn4)cc3)c2n1` (atropisomer, axis not shown) [Example 23], for which the DC50 on RAS G12V is 112 nM. Besides, the Dmax on RAS G12V (PaTu 8902, RAS G12V, read-out: Dmax (degradation rate at the concentration with highest degradation activity)) is 62%. Also, the IC50 turned out to be 182 nM in the experiment with PA-TU-8902 cells (setting [1]), 9 nM in the experiment with AsPC-1 cells (setting [2]) and 17 nM in the experiment on MIA PaCa-2 cells (setting [3]).

With `CO[C@@H](C)COc1nc(NC2CN(C(=O)N3CC(CN(C)C)C3)C2)c2cc(C3CC3)c(-c3c(C)c(F)cc4[nH]ncc34)c(OCc3ccc(-c4cn([C@H](C(=O)N5C[C@H](O)C[C@H]5C(=O)N[C@@H](CO)c5ccc(-c6scnc6C)cc5)C(C)C)nn4)cc3)c2n1` (atropisomer, axis not shown) [Example 25], the DC50 at RAS G12V worked out at 14 nM. Further, the IC50 in the experiment with PA-TU-8902 cells (setting [1]) was determined as 41 nM; with AsPC-1 cells (setting [2]) it was 14 nM; in the experiment on MIA PaCa-2 cells (setting [3]), 16 nM.

`CO[C@@H](C)COc1nc(NC2CN(C(=S)N3CC(CN(C)C)C3)C2)c2cc(C3CC3)c(-c3c(C)c(F)cc4[nH]ncc34)c(OCc3ccc(-c4cn([C@H](C(=O)N5C[C@H](O)C[C@H]5C(=O)N[C@@H](CO)c5ccc(-n6cncn6)cc5)C(C)C)nn4)cc3)c2n1` (atropisomer, axis not shown) [Example 26]: on RAS G12V, the DC50 amounted to 19 nM. Further, the IC50 in the experiment on PA-TU-8902 cells (setting [1]) amounted to 41 nM; in the experiment with AsPC-1 cells (setting [2]), 15 nM; with MIA PaCa-2 cells (setting [3]), 7 nM.

`CO[C@@H](C)COc1cc(OC2CN(C(=O)C3CN(C)C3)C2)c2cc(C3CC3)c(-c3c(C)c(F)cc4[nH]ncc34)c(OCc3ccc(-c4cn([C@H](C(=O)N5C[C@H](O)C[C@H]5C(=O)N[C@@H](CO)c5ccc(-n6cncn6)cc5)C(C)C)nn4)cc3)c2n1` (atropisomer, axis not shown) [Example 42]: on RAS G12V, the DC50 stood at 30 nM. For the same compound, the IC50 was 32 nM in the experiment with PA-TU-8902 cells, 10 nM in the experiment on AsPC-1 cells and 9 nM with MIA PaCa-2 cells.
